Data: US20250084039A1, “4-SUBSTITUTED AMINOISOQUINOLINE DERIVATIVES” (Purdue Research Foundation, priority 2016, published 2025)
Read-outs that look alike come from different tables or passages of the source.

How the values were obtained:
MV4-11 = test: IC50 proliferation assay (Alamar Blue, 72 h); format: cell-based; settings: read-out: IC50 (proliferation inhibition) Cell line - MV4-11
How it was run: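 Cells seeded ~18 h before treatment with semi-serial compound dilutions made in DMSO then growth medium. After 72 h exposure, Alamar Blue added and read following 4 h further at 37 °C; IC50 for proliferation inhibition.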

K562 = test: IC50 proliferation assay (Alamar Blue, 72 h); format: cell-based
HIPK1 = HIPK1 (Homo sapiens (Human), UniProt Q86Z02); test: Reaction Biology HotSpot kinase assay; format: biochemical; settings: 500 nM compound
How it was run: (§1)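 Single-point screen, 500 nM cpd; 20 min preinc with enzyme/substrate; start with ATP + 33P-ATP, 100 μM final; 2 h RT; P81 filter capture. Buffer: 20 mM HEPES pH 7.5, 10 mM MgCl2, 1 mM EGTA, 0.02% Brij35, 1% DMSO. Data as % activity vs DMSO.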

CDK1/cyclin E = CDK1/cyclin E (Homo sapiens (Human), UniProt P06493); test: Reaction Biology HotSpot kinase assay; format: biochemical; settings: 500 nM compound
How it was run: as §1

BRK = BRK (Homo sapiens (Human), UniProt Q13882); test: Reaction Biology HotSpot kinase assay; format: biochemical; settings: 500 nM compound
Chain of BRK (Q13882 whole entry): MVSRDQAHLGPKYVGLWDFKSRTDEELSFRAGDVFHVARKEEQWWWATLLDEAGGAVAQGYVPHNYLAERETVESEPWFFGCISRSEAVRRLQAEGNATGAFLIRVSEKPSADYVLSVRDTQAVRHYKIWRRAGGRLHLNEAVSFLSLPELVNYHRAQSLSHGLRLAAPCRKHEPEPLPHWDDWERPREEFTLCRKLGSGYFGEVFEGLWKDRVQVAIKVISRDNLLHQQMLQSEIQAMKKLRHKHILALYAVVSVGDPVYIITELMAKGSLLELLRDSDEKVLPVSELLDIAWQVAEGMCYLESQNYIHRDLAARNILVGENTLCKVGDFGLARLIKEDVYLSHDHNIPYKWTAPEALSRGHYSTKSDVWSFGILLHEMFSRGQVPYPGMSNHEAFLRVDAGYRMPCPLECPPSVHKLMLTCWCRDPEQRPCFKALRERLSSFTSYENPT
How it was run: (§2)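 Phosphotransfer from [γ-33P]ATP was quantified after filter binding on P81 paper. Conditions: 20 mM HEPES pH 7.5, 10 mM MgCl2, 0.1 mM Na3VO4, 2 mM DTT, 0.02 mg/mL BSA; ATP 100 μM final; 2 h at room temperature. Compound was dosed at 500 nM.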

ERBB4/HER4 = ERBB4/HER4 (Homo sapiens (Human), UniProt Q15303); test: Reaction Biology HotSpot kinase assay; format: biochemical; settings: 500 nM compound
How it was run: as §1

FER = FER (Homo sapiens (Human), UniProt P16591); test: Reaction Biology HotSpot kinase assay; format: biochemical; settings: 500 nM compound
How it was run: as §1

CDK9/cyclin K = CDK9/cyclin K (Homo sapiens (Human), UniProt P50750); test: Reaction Biology HotSpot kinase assay; format: biochemical; settings: 500 nM compound
How it was run: as §1

JNK1 = JNK1 (Homo sapiens (Human), UniProt P45983); test: Reaction Biology HotSpot kinase assay; format: biochemical; settings: 500 nM compound
Chain of JNK1 (P45983 whole entry): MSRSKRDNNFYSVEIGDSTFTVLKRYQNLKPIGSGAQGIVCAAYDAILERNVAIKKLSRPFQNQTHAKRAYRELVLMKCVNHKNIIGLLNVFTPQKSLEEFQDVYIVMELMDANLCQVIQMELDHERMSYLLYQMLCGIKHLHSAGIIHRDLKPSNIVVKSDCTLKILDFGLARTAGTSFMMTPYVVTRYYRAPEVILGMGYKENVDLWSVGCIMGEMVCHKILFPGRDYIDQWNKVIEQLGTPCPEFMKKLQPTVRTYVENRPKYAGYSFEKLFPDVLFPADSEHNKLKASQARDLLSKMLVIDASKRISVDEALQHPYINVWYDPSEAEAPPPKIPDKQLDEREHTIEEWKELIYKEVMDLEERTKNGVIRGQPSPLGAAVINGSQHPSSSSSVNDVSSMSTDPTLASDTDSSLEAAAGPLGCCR
How it was run: as §1

P38a/MAPK14 = P38a/MAPK14 (Homo sapiens (Human), UniProt Q16539); test: Reaction Biology HotSpot kinase assay; format: biochemical; settings: 500 nM compound
Chain of P38a/MAPK14 (Q16539 whole entry): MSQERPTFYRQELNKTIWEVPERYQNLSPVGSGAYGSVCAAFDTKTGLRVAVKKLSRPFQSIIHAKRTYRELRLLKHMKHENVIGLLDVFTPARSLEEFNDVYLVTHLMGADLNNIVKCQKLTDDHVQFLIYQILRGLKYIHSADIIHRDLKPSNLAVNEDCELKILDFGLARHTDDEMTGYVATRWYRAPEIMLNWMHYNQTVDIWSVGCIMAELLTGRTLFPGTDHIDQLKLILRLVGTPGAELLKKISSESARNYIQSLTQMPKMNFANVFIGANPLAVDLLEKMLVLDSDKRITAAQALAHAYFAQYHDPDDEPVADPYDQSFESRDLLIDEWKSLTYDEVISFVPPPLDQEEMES
How it was run: as §1

HCK = HCK (Homo sapiens (Human), UniProt P08631); test: Reaction Biology HotSpot kinase assay; format: biochemical; settings: 500 nM compound
Chain of HCK (P08631 whole entry): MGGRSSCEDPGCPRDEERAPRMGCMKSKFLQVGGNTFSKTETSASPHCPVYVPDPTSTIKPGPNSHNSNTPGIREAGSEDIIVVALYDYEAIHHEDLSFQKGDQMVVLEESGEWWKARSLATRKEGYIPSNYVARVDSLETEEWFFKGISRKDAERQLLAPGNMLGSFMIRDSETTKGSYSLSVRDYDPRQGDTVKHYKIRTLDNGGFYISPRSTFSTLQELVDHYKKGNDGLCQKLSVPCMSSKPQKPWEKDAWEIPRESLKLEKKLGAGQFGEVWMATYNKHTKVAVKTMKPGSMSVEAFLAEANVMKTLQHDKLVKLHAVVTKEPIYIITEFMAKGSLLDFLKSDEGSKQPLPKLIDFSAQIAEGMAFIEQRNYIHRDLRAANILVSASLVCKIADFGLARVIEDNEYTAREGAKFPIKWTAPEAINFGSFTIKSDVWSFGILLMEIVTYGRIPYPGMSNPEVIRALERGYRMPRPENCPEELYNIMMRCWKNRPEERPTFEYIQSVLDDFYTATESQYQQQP
How it was run: as §1

IGF1R = IGF1R (Homo sapiens (Human), UniProt P08069); test: Reaction Biology HotSpot kinase assay; format: biochemical; settings: 500 nM compound
How it was run: as §1

MELK = MELK (Homo sapiens (Human), UniProt Q14680); test: Reaction Biology HotSpot kinase assay; format: biochemical; settings: 500 nM compound
How it was run: as §1

MST4 = MST4 (Homo sapiens (Human), UniProt Q9P289); test: Reaction Biology HotSpot kinase assay; format: biochemical; settings: 500 nM compound
How it was run: as §1

CDK9/cyclin T1 = CDK9/cyclin T1 (Homo sapiens (Human), UniProt P50750); test: Reaction Biology HotSpot kinase assay; format: biochemical; settings: 500 nM compound
How it was run: as §1

AKT2 = AKT2 (Homo sapiens (Human), UniProt P31751); test: Reaction Biology HotSpot kinase assay; format: biochemical; settings: 500 nM compound
How it was run: as §1

MEK1 = MEK1 (Homo sapiens (Human), UniProt Q02750); test: Reaction Biology HotSpot kinase assay; format: biochemical; settings: 500 nM compound
Chain of MEK1 (Q02750 whole entry): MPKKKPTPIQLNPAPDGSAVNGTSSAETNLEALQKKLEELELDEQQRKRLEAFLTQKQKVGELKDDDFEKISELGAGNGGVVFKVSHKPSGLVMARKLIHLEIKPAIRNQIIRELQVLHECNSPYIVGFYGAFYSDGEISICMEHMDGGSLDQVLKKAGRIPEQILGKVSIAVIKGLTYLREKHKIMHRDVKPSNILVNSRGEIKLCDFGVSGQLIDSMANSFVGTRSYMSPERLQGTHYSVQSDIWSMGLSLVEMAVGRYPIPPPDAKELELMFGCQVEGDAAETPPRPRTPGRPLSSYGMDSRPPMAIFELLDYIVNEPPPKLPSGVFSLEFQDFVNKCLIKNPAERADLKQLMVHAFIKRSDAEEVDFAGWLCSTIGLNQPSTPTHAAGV
How it was run: as §1

SYK = SYK (Homo sapiens (Human), UniProt P43405); test: Reaction Biology HotSpot kinase assay; format: biochemical; settings: 500 nM compound
How it was run: as §1

FYN = FYN (Homo sapiens (Human), UniProt P06241); test: Reaction Biology HotSpot kinase assay; format: biochemical; settings: 500 nM compound
Chain of FYN (P06241 whole entry): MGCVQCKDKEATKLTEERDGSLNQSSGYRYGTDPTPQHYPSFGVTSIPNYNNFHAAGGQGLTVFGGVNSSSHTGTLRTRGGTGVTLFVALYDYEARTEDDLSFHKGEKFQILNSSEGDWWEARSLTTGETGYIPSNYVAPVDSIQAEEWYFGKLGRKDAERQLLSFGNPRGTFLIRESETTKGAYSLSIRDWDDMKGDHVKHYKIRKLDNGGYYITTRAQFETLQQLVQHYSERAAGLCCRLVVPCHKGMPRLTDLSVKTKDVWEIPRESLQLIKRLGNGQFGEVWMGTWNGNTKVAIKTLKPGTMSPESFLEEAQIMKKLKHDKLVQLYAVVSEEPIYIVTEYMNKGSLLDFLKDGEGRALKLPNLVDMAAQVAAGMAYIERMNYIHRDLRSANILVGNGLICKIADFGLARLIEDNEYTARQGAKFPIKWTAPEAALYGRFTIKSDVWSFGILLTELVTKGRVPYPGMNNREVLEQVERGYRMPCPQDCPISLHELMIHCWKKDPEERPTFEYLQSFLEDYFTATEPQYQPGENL
How it was run: as §1

c-kit = c-kit (Homo sapiens (Human), UniProt P10721); test: Reaction Biology HotSpot kinase assay; format: biochemical; settings: 500 nM compound, 100 μM radiolabeled ATP
Chain of c-kit (P10721 26-976): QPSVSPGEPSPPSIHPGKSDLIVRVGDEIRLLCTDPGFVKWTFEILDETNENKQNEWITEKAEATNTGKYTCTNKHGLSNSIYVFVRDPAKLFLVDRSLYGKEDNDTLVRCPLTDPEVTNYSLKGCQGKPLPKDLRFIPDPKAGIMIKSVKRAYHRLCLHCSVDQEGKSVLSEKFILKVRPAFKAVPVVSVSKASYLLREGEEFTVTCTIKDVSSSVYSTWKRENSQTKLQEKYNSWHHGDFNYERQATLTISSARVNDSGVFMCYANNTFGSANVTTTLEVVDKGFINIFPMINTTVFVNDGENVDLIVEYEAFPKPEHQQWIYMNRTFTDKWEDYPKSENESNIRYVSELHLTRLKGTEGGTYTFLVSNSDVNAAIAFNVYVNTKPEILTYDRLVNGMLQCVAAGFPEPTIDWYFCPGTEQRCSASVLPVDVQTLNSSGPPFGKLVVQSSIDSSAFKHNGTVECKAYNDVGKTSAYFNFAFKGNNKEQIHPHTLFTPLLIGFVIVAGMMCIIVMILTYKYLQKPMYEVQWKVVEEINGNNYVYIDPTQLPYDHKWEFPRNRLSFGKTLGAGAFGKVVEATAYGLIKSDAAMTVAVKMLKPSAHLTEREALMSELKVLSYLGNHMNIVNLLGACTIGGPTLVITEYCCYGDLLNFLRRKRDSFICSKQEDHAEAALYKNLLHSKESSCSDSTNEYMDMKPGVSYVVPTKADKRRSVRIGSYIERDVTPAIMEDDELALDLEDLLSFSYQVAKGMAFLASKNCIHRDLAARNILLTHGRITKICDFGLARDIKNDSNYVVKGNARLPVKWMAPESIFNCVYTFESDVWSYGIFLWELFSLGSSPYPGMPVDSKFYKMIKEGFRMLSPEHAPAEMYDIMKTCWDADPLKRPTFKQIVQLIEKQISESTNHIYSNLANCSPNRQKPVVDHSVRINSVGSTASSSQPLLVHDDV
How it was run: as §2

CDK6/cyclin D3 = CDK6/cyclin D3 (Homo sapiens (Human), UniProt Q00534); test: Reaction Biology HotSpot kinase assay; format: biochemical; settings: 500 nM compound
How it was run: as §1

CDK4/cyclin D1 = CDK4/cyclin D1 (Homo sapiens (Human), UniProt P11802); test: Reaction Biology HotSpot kinase assay; format: biochemical; settings: 500 nM compound
How it was run: as §2

RSK2 = RSK2 (Homo sapiens (Human), UniProt P51812); test: Reaction Biology HotSpot kinase assay; format: biochemical; settings: 500 nM compound
How it was run: as §1

RON/MST1R = RON/MST1R (Homo sapiens (Human), UniProt Q04912); test: Reaction Biology HotSpot kinase assay; format: biochemical; settings: 500 nM compound
Chain of RON/MST1R (Q04912 25-1400): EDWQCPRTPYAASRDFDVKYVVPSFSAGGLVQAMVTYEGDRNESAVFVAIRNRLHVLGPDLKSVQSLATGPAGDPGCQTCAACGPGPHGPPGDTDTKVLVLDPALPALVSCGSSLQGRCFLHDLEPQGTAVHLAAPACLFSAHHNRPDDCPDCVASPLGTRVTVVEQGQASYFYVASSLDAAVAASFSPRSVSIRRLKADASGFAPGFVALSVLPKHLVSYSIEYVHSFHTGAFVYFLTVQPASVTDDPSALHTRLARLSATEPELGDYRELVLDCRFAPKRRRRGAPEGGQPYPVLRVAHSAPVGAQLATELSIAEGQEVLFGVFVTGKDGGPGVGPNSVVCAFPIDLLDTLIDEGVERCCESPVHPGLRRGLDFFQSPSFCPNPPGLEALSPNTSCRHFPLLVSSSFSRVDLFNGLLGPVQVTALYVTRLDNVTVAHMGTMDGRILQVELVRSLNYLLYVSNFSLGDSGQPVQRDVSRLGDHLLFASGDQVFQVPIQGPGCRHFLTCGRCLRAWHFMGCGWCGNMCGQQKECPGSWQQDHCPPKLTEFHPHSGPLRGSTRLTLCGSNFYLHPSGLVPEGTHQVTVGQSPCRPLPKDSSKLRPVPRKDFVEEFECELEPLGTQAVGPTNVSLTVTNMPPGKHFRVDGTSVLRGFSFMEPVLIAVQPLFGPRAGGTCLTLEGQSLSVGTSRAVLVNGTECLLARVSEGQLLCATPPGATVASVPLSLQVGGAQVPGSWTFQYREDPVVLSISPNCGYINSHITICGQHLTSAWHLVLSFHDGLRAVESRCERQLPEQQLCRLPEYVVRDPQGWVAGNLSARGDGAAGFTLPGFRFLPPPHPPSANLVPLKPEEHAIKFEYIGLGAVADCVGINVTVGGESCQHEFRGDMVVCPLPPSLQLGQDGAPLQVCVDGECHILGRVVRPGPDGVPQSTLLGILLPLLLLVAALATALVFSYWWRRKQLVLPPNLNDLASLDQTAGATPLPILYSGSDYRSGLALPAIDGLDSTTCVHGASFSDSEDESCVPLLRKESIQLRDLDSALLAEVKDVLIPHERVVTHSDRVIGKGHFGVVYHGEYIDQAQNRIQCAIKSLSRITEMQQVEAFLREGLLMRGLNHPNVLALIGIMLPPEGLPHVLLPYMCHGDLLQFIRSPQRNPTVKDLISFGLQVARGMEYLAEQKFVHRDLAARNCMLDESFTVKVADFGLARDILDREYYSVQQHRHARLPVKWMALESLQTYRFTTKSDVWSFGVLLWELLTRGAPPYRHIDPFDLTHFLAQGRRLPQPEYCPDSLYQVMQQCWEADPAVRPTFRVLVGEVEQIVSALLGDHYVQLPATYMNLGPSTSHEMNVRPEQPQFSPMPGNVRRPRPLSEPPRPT
How it was run: as §1

CDK2/cyclin A = CDK2/cyclin A (Homo sapiens (Human), UniProt P24941); test: Reaction Biology HotSpot kinase assay; format: biochemical; settings: 500 nM compound
How it was run: as §2

ITK = ITK (Homo sapiens (Human), UniProt Q08881); test: Reaction Biology HotSpot kinase assay; format: biochemical; settings: 500 nM compound
How it was run: as §1

[1] = Homo sapiens, K562, 72 h, read-out: IC50 (proliferation inhibition) Cell line - K562
[2] = Homo sapiens, K562, Table 18, read-out: Inhibition of proliferation of K562 cell lines (CML)

SMILES: CN(C)CC(O)CNC(=O)c1ccc(C#Cc2c(N)ncc3ccc(Cl)cc23)cc1 (centres unmarked) [HSM1702]
- IC50 (MV4-11; 72 h): 71 nM
- IC50 (K562; 72 h, read-out: IC50 (proliferation inhibition) Cell line - K562): 5060 nM
- IC50 (K562; Table 18, read-out: Inhibition of proliferation of K562 cell lines (CML)): 5057 ± 0.45 nM
- Percentage kinase inhibition HIPK1 (HIPK1): 42%
- Percentage kinase inhibition CDK1/cyclin E (CDK1/cyclin E): 13%
- Percentage kinase inhibition BRK (BRK): 18%
- Percentage kinase inhibition ERBB4/HER4 (ERBB4/HER4): 0%
- Percentage kinase inhibition FER (FER): 0%
- Percentage kinase inhibition CDK9/cyclin K (CDK9/cyclin K): 53%
- Percentage kinase inhibition JNK1 (JNK1): 0%
- Percentage kinase inhibition P38a/MAPK14 (P38a/MAPK14): 0%
- Percentage kinase inhibition HCK (HCK): 2%
- Percentage kinase inhibition IGF1R (IGF1R): 3%
- Percentage kinase inhibition MELK (MELK): 12%
- Percentage kinase inhibition MST4 (MST4): 0%
- Percentage kinase inhibition CDK9/cyclin T1 (CDK9/cyclin T1): 41%
- Percentage kinase inhibition AKT2 (AKT2): 18%
- Percentage kinase inhibition MEK1 (MEK1): 0%
- Percentage kinase inhibition SYK (SYK): 4%
- Percentage kinase inhibition FYN (FYN): 16%
- % inhibition of c-Kit (c-kit): 83%
- Percentage kinase inhibition CDK6/cyclin D3 (CDK6/cyclin D3): 50%
- Percentage kinase inhibition CDK4/cyclin D1 (CDK4/cyclin D1): 16%
- Percentage kinase inhibition RSK2 (RSK2): 7%
- Percentage kinase inhibition RON/MST1R (RON/MST1R): 0%
- Percentage kinase inhibition CDK2/cyclin A (CDK2/cyclin A): 18%
- Percentage kinase inhibition ITK (ITK): 0%

SMILES: Cc1ccc(C(=O)Nc2ccc(CN3CCN(C)CC3)c(C(F)(F)F)c2)cc1C#Cc1cnc(N)c2ncccc12 [HSN356, 3-((8-amino-1,7-naphthyridin-5-yl)ethynyl)-4-methyl-N-(4-((4-methylpiperazin-1-yl)methyl)-3-(trifluoromethyl)phenyl)benzamide]
- IC50 (MV4-11; Homo sapiens, MV4-11, 72 h): 0.4 nM
- IC50 (K562; [1]): 2 nM
- IC50 (K562; [2]): 1.8 ± 0.03 nM
- inhibition at 0.5 µM (c-kit): 87%

SMILES: Cc1ccc(C(=O)Nc2ccc(CN3CCN(C)CC3)c(C(F)(F)F)c2)cc1C#Cc1cc(N)nc2ccccc12 [HSN285]
- IC50 (MV4-11; Homo sapiens, MV4-11, 72 h): 722 nM
- IC50 (K562; [1]): 1100 nM
- IC50 (K562; [2]): 1102 ± 0.08 nM
- inhibition at 0.5 µM (c-kit): 31%
